Earlier results, collected in article PMC8513935.

Experiments:
[1] = log P octanol/water from commercial databases, averaged (the ESI); settings: Octanol (wet), 25 C
[2] = experimental, compiled by the authors from the literature (the ESI cites the sources)
[3] = derived by the authors as gas->solvent minus gas->water (a hypothetical dry solvent; the ESI), not a two-phase measurement

## ClC(Cl)(Cl)Cl
[1]
  log K of transfer, water to solvent: 2.83 log10 K
[2]; 1,2-Dichloroethane, 25 C
  log K of transfer, gas to solvent: 3.04 log10 K
[2]; 2-Methylpropan-2-ol, 25 C
  log K of transfer, gas to solvent: 2.74 log10 K
[2]; Acetonitrile, 25 C
  log K of transfer, gas to solvent: 2.68 log10 K
[2]; Butan-1-ol, 25 C
  log K of transfer, gas to solvent: 2.84 log10 K
[2]; Butanone, 25 C
  log K of transfer, gas to solvent: 3.04 log10 K
[2]; CCl4, 25 C
  log K of transfer, gas to solvent: 3.24 log10 K
[2]; Chloroform, 25 C
  log K of transfer, gas to solvent: 3.25 log10 K
[2]; Cyclohexanone, 25 C
  log K of transfer, gas to solvent: 3.17 log10 K
[2]; Di-n-butyl ether, 25 C
  log K of transfer, gas to solvent: 3.05 log10 K
[2]; Diethyl Ether, 25 C
  log K of transfer, gas to solvent: 3.22 log10 K
[2]; Ethanol, 25 C
  log K of transfer, gas to solvent: 2.75 log10 K
[2]; Hexadecane, 25 C
  log K of transfer, gas to solvent: 2.82 log10 K
[2]; Hexan-1-ol, 25 C
  log K of transfer, gas to solvent: 2.81 log10 K
[2]; Hexane, 25 C
  log K of transfer, gas to solvent: 3.03 log10 K
[2]; Methanol, 25 C
  log K of transfer, gas to solvent: 2.66 log10 K
[2]; Octan-1-ol, 25 C
  log K of transfer, gas to solvent: 2.79 log10 K
[2]; Propan-1-ol, 25 C
  log K of transfer, gas to solvent: 2.75 log10 K
[2]; Propanone, 25 C
  log K of transfer, gas to solvent: 3.04 log10 K
[2]; Propionitrile, 25 C
  log K of transfer, gas to solvent: 2.86 log10 K
[2]; Tetrahydrofuran, 25 C
  log K of transfer, gas to solvent: 3.41 log10 K
[2]; Water, 25 C
  log K of transfer, gas to solvent: -0.06 log10 K
[3]; 1,2-Dichloroethane, 25 C
  log K of transfer, water to solvent: 3.1 log10 K
[3]; 2-Methylpropan-2-ol, 25 C
  log K of transfer, water to solvent: 2.8 log10 K
[3]; Acetone, 25 C
  log K of transfer, water to solvent: 3.1 log10 K
[3]; Acetonitrile, 25 C
  log K of transfer, water to solvent: 2.74 log10 K
[3]; Butan-1-ol, 25 C
  log K of transfer, water to solvent: 2.9 log10 K
[3]; Butanone, 25 C
  log K of transfer, water to solvent: 3.1 log10 K
[3]; CCl4, 25 C
  log K of transfer, water to solvent: 3.3 log10 K
[3]; Chloroform, 25 C
  log K of transfer, water to solvent: 3.31 log10 K
[3]; Cyclohexanone, 25 C
  log K of transfer, water to solvent: 3.23 log10 K
[3]; Di-n-butyl ether, 25 C
  log K of transfer, water to solvent: 3.11 log10 K
[3]; Diethyl Ether, 25 C
  log K of transfer, water to solvent: 3.28 log10 K
[3]; Ethanol, 25 C
  log K of transfer, water to solvent: 2.81 log10 K
[3]; Hexadecane, 25 C
  log K of transfer, water to solvent: 2.88 log10 K
[3]; Hexan-1-ol, 25 C
  log K of transfer, water to solvent: 2.87 log10 K
[3]; Hexane, 25 C
  log K of transfer, water to solvent: 3.09 log10 K
[3]; Methanol, 25 C
  log K of transfer, water to solvent: 2.72 log10 K
[3]; Octan-1-ol(dry), 25 C
  log K of transfer, water to solvent: 2.85 log10 K
[3]; Propan-1-ol, 25 C
  log K of transfer, water to solvent: 2.81 log10 K
[3]; Propionitrile, 25 C
  log K of transfer, water to solvent: 2.92 log10 K
[3]; Tetrahydrofuran, 25 C
  log K of transfer, water to solvent: 3.47 log10 K

## CCC1CCCCC1
[1]
  log K of transfer, water to solvent: 4.56 log10 K
[2]; 1,2-Dichloroethane, 25 C
  log K of transfer, gas to solvent: 3.57 log10 K
[2]; Acetonitrile, 25 C
  log K of transfer, gas to solvent: 2.87 log10 K
[2]; Butan-1-ol, 25 C
  log K of transfer, gas to solvent: 3.44 log10 K
[2]; Butanone, 25 C
  log K of transfer, gas to solvent: 3.53 log10 K
[2]; Butyronitrile, 25 C
  log K of transfer, gas to solvent: 3.35 log10 K
[2]; CCl4, 25 C
  log K of transfer, gas to solvent: 4.08 log10 K
[2]; Chlorobenzene, 25 C
  log K of transfer, gas to solvent: 4.06 log10 K
[2]; Chloroform, 25 C
  log K of transfer, gas to solvent: 3.99 log10 K
[2]; Cyclohexanone, 25 C
  log K of transfer, gas to solvent: 3.55 log10 K
[2]; Dichloromethane, 25 C
  log K of transfer, gas to solvent: 3.82 log10 K
[2]; Ethanol, 25 C
  log K of transfer, gas to solvent: 3.27 log10 K
[2]; Hexadecane, 25 C
  log K of transfer, gas to solvent: 3.88 log10 K
[2]; Hexane, 25 C
  log K of transfer, gas to solvent: 3.97 log10 K
[2]; Methanol, 25 C
  log K of transfer, gas to solvent: 2.96 log10 K
[2]; Perfluoroalkane, 25 C
  log K of transfer, gas to solvent: 2.56 log10 K
[2]; Propan-1-ol, 25 C
  log K of transfer, gas to solvent: 3.28 log10 K
[2]; Propan-2-ol, 25 C
  log K of transfer, gas to solvent: 3.27 log10 K
[2]; Propanone, 25 C
  log K of transfer, gas to solvent: 3.32 log10 K
[2]; Propionitrile, 25 C
  log K of transfer, gas to solvent: 3.17 log10 K
[2]; Tetrahydrofuran, 25 C
  log K of transfer, gas to solvent: 3.92 log10 K
[2]; Water, 25 C
  log K of transfer, gas to solvent: -1.58 log10 K
[3]; 1,2-Dichloroethane, 25 C
  log K of transfer, water to solvent: 5.15 log10 K
[3]; Acetone, 25 C
  log K of transfer, water to solvent: 4.9 log10 K
[3]; Acetonitrile, 25 C
  log K of transfer, water to solvent: 4.45 log10 K
[3]; Butan-1-ol, 25 C
  log K of transfer, water to solvent: 5.02 log10 K
[3]; Butanone, 25 C
  log K of transfer, water to solvent: 5.11 log10 K
[3]; Butyronitrile, 25 C
  log K of transfer, water to solvent: 4.93 log10 K
[3]; CCl4, 25 C
  log K of transfer, water to solvent: 5.66 log10 K
[3]; Chlorobenzene, 25 C
  log K of transfer, water to solvent: 5.64 log10 K
[3]; Chloroform, 25 C
  log K of transfer, water to solvent: 5.57 log10 K
[3]; Cyclohexanone, 25 C
  log K of transfer, water to solvent: 5.13 log10 K
[3]; Dichloromethane, 25 C
  log K of transfer, water to solvent: 5.4 log10 K
[3]; Ethanol, 25 C
  log K of transfer, water to solvent: 4.84 log10 K
[3]; Hexadecane, 25 C
  log K of transfer, water to solvent: 5.45 log10 K
[3]; Hexane, 25 C
  log K of transfer, water to solvent: 5.55 log10 K
[3]; Methanol, 25 C
  log K of transfer, water to solvent: 4.54 log10 K
[3]; Perfluoroalkane, 25 C
  log K of transfer, water to solvent: 4.14 log10 K
[3]; Propan-1-ol, 25 C
  log K of transfer, water to solvent: 4.86 log10 K
[3]; Propan-2-ol, 25 C
  log K of transfer, water to solvent: 4.85 log10 K
[3]; Propionitrile, 25 C
  log K of transfer, water to solvent: 4.75 log10 K
[3]; Tetrahydrofuran, 25 C
  log K of transfer, water to solvent: 5.5 log10 K

## CCCC(C)O (centres unmarked)
[1]
  log K of transfer, water to solvent: 1.25 log10 K
[2]; 1,2-Dichloroethane, 25 C
  log K of transfer, gas to solvent: 4 log10 K
[2]; CCl4, 25 C
  log K of transfer, gas to solvent: 3.45 log10 K
[2]; Hexadecane, 25 C
  log K of transfer, gas to solvent: 2.84 log10 K
[2]; Water, 25 C
  log K of transfer, gas to solvent: 3.22 log10 K
[3]; 1,2-Dichloroethane, 25 C
  log K of transfer, water to solvent: 0.78 log10 K
[3]; CCl4, 25 C
  log K of transfer, water to solvent: 0.23 log10 K
[3]; Hexadecane, 25 C
  log K of transfer, water to solvent: -0.38 log10 K
